# Laboratory results as given in ChEMBL document CHEMBL4418490, “N-(heteroaryl)-sulfonamide derivatives useful as s100-inhibitors” (2018).
# Key:
# Format in all cases: ADME, organism-based
# [1] = Plasma concentration in C215 transfected MC38 cells implanted C57BL/6 mouse at 1 mg/kg, iv dosed as cassette formulation and measured at 0.083 hrs after post dose by LC-MS analysis
# [2] = Plasma concentration in C215 transfected MC38 cells implanted C57BL/6 mouse at 1 mg/kg, iv dosed as cassette formulation and measured at 0.5 hrs after post dose by LC-MS analysis
# [3] = Plasma concentration in C215 transfected MC38 cells implanted C57BL/6 mouse at 1 mg/kg, iv dosed as cassette formulation and measured at 1 hr after post dose by LC-MS analysis
# [4] = Plasma concentration in C215 transfected MC38 cells implanted C57BL/6 mouse at 1 mg/kg, iv dosed as cassette formulation and measured at 2 hrs after post dose by LC-MS analysis
# [5] = Plasma concentration in C215 transfected MC38 cells implanted C57BL/6 mouse at 1 mg/kg, iv dosed as cassette formulation and measured at 4 hrs after post dose by LC-MS analysis
# [6] = Plasma concentration in C215 transfected MC38 cells implanted C57BL/6 mouse at 1 mg/kg, iv dosed as cassette formulation and measured at 7 hrs after post dose by LC-MS analysis
# [7] = Plasma concentration in C215 transfected MC38 cells implanted C57BL/6 mouse at 5 mg/kg, po dosed as cassette formulation and measured at 0.5 hrs after post dose by LC-MS analysis
# [8] = Plasma concentration in C215 transfected MC38 cells implanted C57BL/6 mouse at 5 mg/kg, po dosed as cassette formulation and measured at 1 hr after post dose by LC-MS analysis
# [9] = Plasma concentration in C215 transfected MC38 cells implanted C57BL/6 mouse at 5 mg/kg, po dosed as cassette formulation and measured at 2 hrs after post dose by LC-MS analysis
# [10] = Plasma concentration in C215 transfected MC38 cells implanted C57BL/6 mouse at 5 mg/kg, po dosed as cassette formulation and measured at 4 hrs after post dose by LC-MS analysis
# [11] = Plasma concentration in C215 transfected MC38 cells implanted C57BL/6 mouse at 5 mg/kg, po dosed as cassette formulation and measured at 7 hrs after post dose by LC-MS analysis
# [12] = Plasma concentration in C215 transfected MC38 cells implanted C57BL/6 mouse assessed as 2,5-dichloro-N-(6-chloro-4-hydroxypyridin-3-yl)thiophene-3-sulfonamide level at 1 mg/kg, iv dosed as cassette formulation and measured at 0.083 hrs after post dose by LC-MS analysis; conditions: in vivo
# [13] = Plasma concentration in C215 transfected MC38 cells implanted C57BL/6 mouse assessed as 2,5-dichloro-N-(6-chloro-4-hydroxypyridin-3-yl)thiophene-3-sulfonamide level at 1 mg/kg, iv dosed as cassette formulation and measured at 0.5 hrs after post dose by LC-MS analysis; conditions: in vivo
# [14] = Plasma concentration in C215 transfected MC38 cells implanted C57BL/6 mouse assessed as 2,5-dichloro-N-(6-chloro-4-hydroxypyridin-3-yl)thiophene-3-sulfonamide level at 1 mg/kg, iv dosed as cassette formulation and measured at 1 hr after post dose by LC-MS analysis; conditions: in vivo
# [15] = Plasma concentration in C215 transfected MC38 cells implanted C57BL/6 mouse assessed as 2,5-dichloro-N-(6-chloro-4-hydroxypyridin-3-yl)thiophene-3-sulfonamide level at 1 mg/kg, iv dosed as cassette formulation and measured at 2 hrs after post dose by LC-MS analysis; conditions: in vivo
# [16] = Plasma concentration in C215 transfected MC38 cells implanted C57BL/6 mouse assessed as 2,5-dichloro-N-(6-chloro-4-hydroxypyridin-3-yl)thiophene-3-sulfonamide level at 1 mg/kg, iv dosed as cassette formulation and measured at 4 hrs after post dose by LC-MS analysis; conditions: in vivo
# [17] = Plasma concentration in C215 transfected MC38 cells implanted C57BL/6 mouse assessed as 2,5-dichloro-N-(6-chloro-4-hydroxypyridin-3-yl)thiophene-3-sulfonamide level at 1 mg/kg, iv dosed as cassette formulation and measured at 7 hrs after post dose by LC-MS analysis; conditions: in vivo
# [18] = Plasma concentration in C215 transfected MC38 cells implanted C57BL/6 mouse assessed as 2,5-dichloro-N-(6-chloro-4-hydroxypyridin-3-yl)thiophene-3-sulfonamide level at 5 mg/kg, po dosed as cassette formulation and measured at 0.5 hrs after post dose by LC-MS analysis; conditions: in vivo
# [19] = Plasma concentration in C215 transfected MC38 cells implanted C57BL/6 mouse assessed as 2,5-dichloro-N-(6-chloro-4-hydroxypyridin-3-yl)thiophene-3-sulfonamide level at 5 mg/kg, po dosed as cassette formulation and measured at 1 hr after post dose by LC-MS analysis; conditions: in vivo
# [20] = Plasma concentration in C215 transfected MC38 cells implanted C57BL/6 mouse assessed as 2,5-dichloro-N-(6-chloro-4-hydroxypyridin-3-yl)thiophene-3-sulfonamide level at 5 mg/kg, po dosed as cassette formulation and measured at 2 hrs after post dose by LC-MS analysis; conditions: in vivo
# [21] = Plasma concentration in C215 transfected MC38 cells implanted C57BL/6 mouse assessed as 2,5-dichloro-N-(6-chloro-4-hydroxypyridin-3-yl)thiophene-3-sulfonamide level at 5 mg/kg, po dosed as cassette formulation and measured at 4 hrs after post dose by LC-MS analysis; conditions: in vivo
# [22] = Plasma concentration in C215 transfected MC38 cells implanted C57BL/6 mouse assessed as 2,5-dichloro-N-(6-chloro-4-hydroxypyridin-3-yl)thiophene-3-sulfonamide level at 5 mg/kg, po dosed as cassette formulation and measured at 7 hrs after post dose by LC-MS analysis; conditions: in vivo
# [23] = Plasma concentration in C215 transfected MC38 cells implanted C57BL/6 mouse assessed as N-(5-chloro-3-hydroxypyridin-2-yl)-1-(3,5-dichlorophenyl)methanesulfonamide level at 1 mg/kg, iv dosed as cassette formulation and measured at 0.083 hrs after post dose by LC-MS analysis; conditions: in vivo
# [24] = Plasma concentration in C215 transfected MC38 cells implanted C57BL/6 mouse assessed as N-(5-chloro-3-hydroxypyridin-2-yl)-1-(3,5-dichlorophenyl)methanesulfonamide level at 1 mg/kg, iv dosed as cassette formulation and measured at 0.5 hrs after post dose by LC-MS analysis; conditions: in vivo
# [25] = Plasma concentration in C215 transfected MC38 cells implanted C57BL/6 mouse assessed as N-(5-chloro-3-hydroxypyridin-2-yl)-1-(3,5-dichlorophenyl)methanesulfonamide level at 1 mg/kg, iv dosed as cassette formulation and measured at 1 hr after post dose by LC-MS analysis; conditions: in vivo
# [26] = Plasma concentration in C215 transfected MC38 cells implanted C57BL/6 mouse assessed as N-(5-chloro-3-hydroxypyridin-2-yl)-1-(3,5-dichlorophenyl)methanesulfonamide level at 1 mg/kg, iv dosed as cassette formulation and measured at 2 hrs after post dose by LC-MS analysis; conditions: in vivo
# [27] = Plasma concentration in C215 transfected MC38 cells implanted C57BL/6 mouse assessed as N-(5-chloro-3-hydroxypyridin-2-yl)-1-(3,5-dichlorophenyl)methanesulfonamide level at 1 mg/kg, iv dosed as cassette formulation and measured at 4 hrs after post dose by LC-MS analysis; conditions: in vivo
# [28] = Plasma concentration in C215 transfected MC38 cells implanted C57BL/6 mouse assessed as N-(5-chloro-3-hydroxypyridin-2-yl)-1-(3,5-dichlorophenyl)methanesulfonamide level at 1 mg/kg, iv dosed as cassette formulation and measured at 7 hrs after post dose by LC-MS analysis; conditions: in vivo
# [29] = Plasma concentration in C215 transfected MC38 cells implanted C57BL/6 mouse assessed as N-(5-chloro-3-hydroxypyridin-2-yl)-1-(3,5-dichlorophenyl)methanesulfonamide level at 5 mg/kg, po dosed as cassette formulation and measured at 0.5 hrs after post dose by LC-MS analysis; conditions: in vivo
# [30] = Plasma concentration in C215 transfected MC38 cells implanted C57BL/6 mouse assessed as N-(5-chloro-3-hydroxypyridin-2-yl)-1-(3,5-dichlorophenyl)methanesulfonamide level at 5 mg/kg, po dosed as cassette formulation and measured at 1 hr after post dose by LC-MS analysis; conditions: in vivo
# [31] = Plasma concentration in C215 transfected MC38 cells implanted C57BL/6 mouse assessed as N-(5-chloro-3-hydroxypyridin-2-yl)-1-(3,5-dichlorophenyl)methanesulfonamide level at 5 mg/kg, po dosed as cassette formulation and measured at 2 hrs after post dose by LC-MS analysis; conditions: in vivo
# [32] = Plasma concentration in C215 transfected MC38 cells implanted C57BL/6 mouse assessed as N-(5-chloro-3-hydroxypyridin-2-yl)-1-(3,5-dichlorophenyl)methanesulfonamide level at 5 mg/kg, po dosed as cassette formulation and measured at 4 hrs after post dose by LC-MS analysis; conditions: in vivo
# [33] = Plasma concentration in C215 transfected MC38 cells implanted C57BL/6 mouse assessed as N-(5-chloro-3-hydroxypyridin-2-yl)-1-(3,5-dichlorophenyl)methanesulfonamide level at 5 mg/kg, po dosed as cassette formulation and measured at 7 hrs after post dose by LC-MS analysis; conditions: in vivo
Compound,concentration at 0.083 h [1] [nM],concentration at 0.5 h [2] [nM],concentration at 1 h [3] [nM],concentration at 2 h [4] [nM],concentration at 4 h [5] [nM],concentration at 7 h [6] [nM],concentration at 0.5 h [7] [nM],concentration at 1 h [8] [nM],concentration at 2 h [9] [nM],concentration at 4 h [10] [nM],concentration at 7 h [11] [nM],further results
COc1cc(Cl)ncc1NS(=O)(=O)c1cc(Cl)sc1Cl,32200,19300,23700,17500,7800,2500,86800,91600,109000,47100,50300,concentration [12]: 89 nM; concentration [13]: 200 nM; concentration [14]: 190 nM; concentration [15]: 210 nM; concentration [16]: 180 nM; concentration [17]: 130 nM; concentration [18]: 460 nM; concentration [19]: 490 nM; concentration [20]: 690 nM; concentration [21]: 610 nM; concentration [22]: 780 nM
COc1cc(Cl)cnc1NS(=O)(=O)Cc1cc(Cl)cc(Cl)c1,6300,550,84,380,170,150,3600,1600,1300,850,700,concentration [23]: 44 nM; concentration [24]: 5 nM; concentration [25]: 3 nM; concentration [26]: 6 nM; concentration [27]: 4 nM; concentration [28]: 4 nM; concentration [29]: 45 nM; concentration [30]: 26 nM; concentration [31]: 21 nM; concentration [32]: 12 nM; concentration [33]: 19 nM
